Laboratory results as given in paper PMC3242765, “Inhibitors of Alphavirus Entry and Replication Identified with a Stable Chikungunya Replicon Cell Line and Virus-Based Assays” (PLoS ONE, 2011).
Structures can show the parent of a compound that is named as a salt.

What was measured:
[1] = test system: CHIKV replicon; test: microbe, parasite or virus in culture; assay type: cell-based, Chikungunya virus (CHIKV)
[2] = test system: SFV-Rluc; details: for SFV replication % left: primary screening of chemical libraries, compounds tested at 50 µM; for % left (remaining SFV replication): Supplementary Table 2, moderately active compounds (25 - 60% remaining), primary screen at 50 µM

## Cc1c(C)c2c(c(C)c1O)CCC(C)(C(=O)O)O2 (stereo not drawn)
[1]
  CHIKV replicon % left: 101.5%
[2]
  SFV replication % left (surviving fraction, remaining percentage of SFV replication): 76.9%

## C=CC[C@]1(O)CC[C@H]2[C@@H]3CCC4=CCCC[C@@H]4[C@H]3CC[C@@]21C
[1]
  CHIKV replicon % left: 49.4%
[2]
  SFV replication % left (surviving fraction, remaining percentage of SFV replication): 37.2%

## CC(C)NCC(O)c1ccc(O)c(O)c1.Cl (stereo not drawn)
[1]
  CHIKV replicon % left: 99.3%
[2]
  SFV replication % left (surviving fraction, remaining percentage of SFV replication): 112.5%

## N[C@@H](Cc1ccc(O)c(O)c1)C(=O)O.N[C@@H](Cc1ccc(O)c(O)c1)C(=O)O
[1]
  CHIKV replicon % left: 54.8%
[2]
  SFV replication % left (surviving fraction, remaining percentage of SFV replication): 43.6%

## Cc1ccccc1OCC(O)CO (stereo not drawn)
[1]
  CHIKV replicon % left: 54.1%
[2]
  SFV replication % left (surviving fraction, remaining percentage of SFV replication): 79.2%

## CC(C)(CO)[C@@H](O)C(=O)NCCC(=O)[O-].CC(C)(CO)[C@@H](O)C(=O)NCCC(=O)[O-].O.[Ca+2]
[1]
  CHIKV replicon % left: 106.1%
[2]
  SFV replication % left (surviving fraction, remaining percentage of SFV replication): 93.1%

## C[C@H](C(=O)O)c1cccc(C(=O)c2ccccc2)c1.C[C@H](C(=O)O)c1cccc(C(=O)c2ccccc2)c1
[1]
  CHIKV replicon % left: 99.6%

## CN(C)CCCN1c2ccccc2Sc2ccc(Cl)cc21 [Chlorpromazine hydrochloride]
[1]
  CHIKV replicon % left: 105.4%

## CN1[C@@H]2CC[C@H]1C[C@@H](OC(=O)C(O)c1ccccc1)C2 (stereo partly drawn) [Homatropine hydrobromide]
[1]
  CHIKV replicon % left: 100.4%

## COc1ccc(OC)c(C(O)C(C)N)c1.Cl (stereo not drawn) [PC-116]
[2]
  SFV replication % left: 98.4%

## C[N+]1(C)[C@@H]2CC[C@H]1C[C@@H](OC(=O)C(CO)c1ccccc1)C2.[Br-] (stereo partly drawn) [PC-117]
[2]
  SFV replication % left: 70.9%

## C[C@](N)(Cc1ccc(O)c(O)c1)C(=O)O [PC-118]
[2]
  SFV replication % left: 99.1%

## COC(=O)c1ccc(O)cc1 [PC-119]
[2]
  SFV replication % left: 69.3%

## CC(=O)Oc1c(C)cc(OCC(O)CNC(C)C)c(C)c1C (stereo not drawn) [PC-120]
[2]
  % left (remaining SFV replication): 46.7%
  SFV replication % left: 46.2%

## Cc1ncc([N+](=O)[O-])n1CCO [PC-121]
[2]
  SFV replication % left: 69.2%

## COCCc1ccc(OCC(O)CNC(C)C)cc1.COCCc1ccc(OCC(O)CNC(C)C)cc1.O=C(O)C(O)C(O)C(=O)O (stereo not drawn) [PC-122]
[2]
  SFV replication % left: 65.7%

## CC(C)(C)NCC(O)COc1cccc2c1CC(O)C(O)C2 (stereo not drawn) [PC-123]
[2]
  SFV replication % left: 60.5%

## N/C(CC(O)COc1cccc2ccccc12)=N/O (stereo not drawn) [PC-124]
[2]
  SFV replication % left: 20.8%

## CCn1cc(C(=O)O)c(=O)c2ccc(C)nc21 [PC-125]
[2]
  SFV replication % left: 80.4%

## COc1ccc2cc([C@H](C)C(=O)O)ccc2c1 [PC-126]
[2]
  SFV replication % left: 92.7%

## COc1ccc(C(=O)Cc2c(CCN(C)C)cc3c(c2OC)OCO3)c(C(=O)O)c1OC [PC-127]
[2]
  SFV replication % left: 118.3%

## NC(=O)c1cccnc1 [PC-129]
[2]
  SFV replication % left: 116.9%

## O=C1CN=C(c2ccccc2)c2cc([N+](=O)[O-])ccc2N1 [PC-130]
[2]
  % left (remaining SFV replication): 46.6%
  SFV replication % left: 46.0%

## O=C1CN(/N=C/c2ccc([N+](=O)[O-])o2)C(=O)N1 [PC-131]
[2]
  SFV replication % left: 58.9%

## NC(=O)N/N=C/c1ccc([N+](=O)[O-])o1 [PC-132]
[2]
  SFV replication % left: 83.7%

## CC(N)C(O)c1ccc(O)c(O)c1.Cl (stereo not drawn) [PC-133]
[2]
  SFV replication % left: 118.0%

## C#C[C@]1(O)CC[C@H]2[C@@H]3CCC4=CC(=O)CC[C@@H]4[C@H]3CC[C@@]21C [PC-134]
[2]
  SFV replication % left: 107.8%

## NCC(O)c1cccc(O)c1 (stereo not drawn) [PC-135]
[2]
  SFV replication % left: 126.3%

## CNCCC=C1c2ccccc2CCc2ccccc21.Cl [PC-136]
[2]
  SFV replication % left: 5.3%

## COc1ccc2c(c1OC)C(=O)O[C@@H]2[C@H]1c2c(cc3c(c2OC)OCO3)CCN1C [PC-137]
[2]
  SFV replication % left: 103.5%

## Cl.NCC(O)c1ccc(O)cc1 (stereo not drawn) [PC-138]
[2]
  SFV replication % left: 102.1%

## OCCN1CCN(CCCN2c3ccccc3C=Cc3ccccc32)CC1 [PC-139]
[2]
  SFV replication % left: 27.5%

## C[C@@H]1O[C@@H](O[C@H]2C[C@@H](O)[C@]3(CO)[C@H]4[C@H](O)C[C@]5(C)[C@@H](C6=CC(=O)OC6)CC[C@]5(O)[C@@H]4CC[C@]3(O)C2)[C@H](O)[C@H](O)[C@H]1O [PC-140]
[2]
  SFV replication % left: 90.9%

## O=C1Nc2ccc(Cl)cc2C(c2ccccc2)=NC1O (stereo not drawn) [PC-141]
[2]
  SFV replication % left: 79.1%

## C=CCOc1ccccc1OCC(O)CNC(C)C.Cl (stereo not drawn) [PC-142]
[2]
  SFV replication % left: 92.4%

## CCCCC1C(=O)N(c2ccccc2)N(c2ccc(O)cc2)C1=O (stereo not drawn) [PC-143]
[2]
  SFV replication % left: 84.8%

## CCOc1ccc(NC(C)=O)cc1 [PC-150]
[2]
  SFV replication % left (surviving fraction, remaining percentage of SFV replication): 71.8%

## CCOc1ccc(NC(C)=O)cc1 [PC-151]
[2]
  SFV replication % left (surviving fraction, remaining percentage of SFV replication): 80.6%

## CCC1(c2ccccc2)C(=O)NC(=O)NC1=O [PC-153]
[2]
  SFV replication % left (surviving fraction, remaining percentage of SFV replication): 58.6%

## CCN(CC)CCNC(=O)c1ccc(N)cc1.Cl [PC-166]
[2]
  SFV replication % left (surviving fraction, remaining percentage of SFV replication): 89.0%

## CCN(CC)CCOC(=O)c1ccc(N)cc1.Cl [PC-167]
[2]
  SFV replication % left (surviving fraction, remaining percentage of SFV replication): 105.4%

## CC(CN1c2ccccc2Sc2ccccc21)N(C)C.Cl (stereo not drawn) [PC-169]
[2]
  SFV replication % left (surviving fraction, remaining percentage of SFV replication): 48.8%

## CC(C)[N+](C)(CCOC(=O)C1c2ccccc2Oc2ccccc21)C(C)C.[Br-] [PC-171]
[2]
  SFV replication % left (surviving fraction, remaining percentage of SFV replication): 77.0%

## CC(C)NCC(O)COc1cccc2ccccc12.Cl (stereo not drawn) [PC-174]
[2]
  SFV replication % left (surviving fraction, remaining percentage of SFV replication): 74.0%

## CC(Cc1ccc2c(c1)OCO2)NCC(O)c1ccc(O)c(O)c1.Cl (stereo not drawn) [PC-177]
[2]
  SFV replication % left (surviving fraction, remaining percentage of SFV replication): 128.4%

## Cc1ncc(CO)c(CO)c1O.Cl [PC-178]
[2]
  SFV replication % left (surviving fraction, remaining percentage of SFV replication): 100.9%

## COc1ccc(CN(CCN(C)C)c2ccccn2)cc1.O=C(O)/C=C\C(=O)O [PC-179]
[2]
  SFV replication % left (surviving fraction, remaining percentage of SFV replication): 73.7%

## Oc1cccc(O)c1 [PC-181]
[2]
  SFV replication % left (surviving fraction, remaining percentage of SFV replication): 67.1%

## Cc1cc2nc3c(=O)[nH]c(=O)nc-3n(C[C@H](O)[C@H](O)[C@H](O)CO)c2cc1C [PC-182]
[2]
  % left (remaining SFV replication): 43.1%

## O=C1NS(=O)(=O)c2ccccc21.[Na] [PC-183]
[2]
  SFV replication % left (surviving fraction, remaining percentage of SFV replication): 105.0%

## CC(C)(C)NCC(O)c1ccc(O)c(CO)c1.CC(C)(C)NCC(O)c1ccc(O)c(CO)c1.O=S(=O)(O)O (stereo not drawn) [PC-185]
[2]
  SFV replication % left (surviving fraction, remaining percentage of SFV replication): 105.0%

## CCC1(c2ccccc2)C(=O)N=C([O-])NC1=O.[Na+] (stereo not drawn) [PC-189]
[2]
  SFV replication % left (surviving fraction, remaining percentage of SFV replication): 88.1%

## CC(C)NCC(O)c1ccc(NS(C)(=O)=O)cc1.Cl (stereo not drawn) [PC-191]
[2]
  SFV replication % left (surviving fraction, remaining percentage of SFV replication): 100.5%

## N=C(N)NS(=O)(=O)c1ccc(N)cc1 [PC-196]
[2]
  SFV replication % left (surviving fraction, remaining percentage of SFV replication): 63.5%

## Cc1nnc(NS(=O)(=O)c2ccc(N)cc2)s1 [PC-200]
[2]
  SFV replication % left (surviving fraction, remaining percentage of SFV replication): 100.4%

## Cc1nnc(NS(=O)(=O)c2ccc(N)cc2)s1 [PC-203]
[2]
  SFV replication % left (surviving fraction, remaining percentage of SFV replication): 89.6%

## CCCCNc1ccc(C(=O)OCCN(C)C)cc1.Cl [PC-215]
[2]
  SFV replication % left (surviving fraction, remaining percentage of SFV replication): 102.8%

## CC(C)(C)NC[C@H](O)COc1nsnc1N1CCOCC1.O=C(O)/C=C\C(=O)O [PC-225]
[2]
  SFV replication % left (surviving fraction, remaining percentage of SFV replication): 129.1%
